From ChEMBL document CHEMBL3421630, “Myxochelins target human 5-lipoxygenase” (J Nat Prod, 2015) come the findings set out here.

The target of assay [1] is T1, Polyunsaturated fatty acid 5-lipoxygenase (Homo sapiens) (UniProt P09917).
T1 sequence (whole entry): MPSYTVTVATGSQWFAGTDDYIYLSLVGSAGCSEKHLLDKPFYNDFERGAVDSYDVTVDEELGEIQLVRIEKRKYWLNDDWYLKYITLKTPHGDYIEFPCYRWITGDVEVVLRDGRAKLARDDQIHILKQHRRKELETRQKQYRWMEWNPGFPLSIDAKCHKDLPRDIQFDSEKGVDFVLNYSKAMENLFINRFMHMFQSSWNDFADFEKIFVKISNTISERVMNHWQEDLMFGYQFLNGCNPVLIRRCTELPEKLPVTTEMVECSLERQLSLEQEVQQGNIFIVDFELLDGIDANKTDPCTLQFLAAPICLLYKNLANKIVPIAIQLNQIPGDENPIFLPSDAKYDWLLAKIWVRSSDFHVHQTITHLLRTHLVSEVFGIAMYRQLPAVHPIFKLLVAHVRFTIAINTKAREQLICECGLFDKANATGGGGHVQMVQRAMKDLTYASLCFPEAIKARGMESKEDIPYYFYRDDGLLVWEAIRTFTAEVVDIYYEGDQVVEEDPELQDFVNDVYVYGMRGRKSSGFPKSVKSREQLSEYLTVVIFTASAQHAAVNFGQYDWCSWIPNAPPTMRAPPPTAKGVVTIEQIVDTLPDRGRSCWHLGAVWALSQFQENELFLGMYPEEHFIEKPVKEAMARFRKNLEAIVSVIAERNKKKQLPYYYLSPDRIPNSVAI
Conditions: 3 uM.
Description: Inhibition of human recombinant 5-LOX expressed in Escherichia coli BL21 DE3 assessed as reduction in 5-LO product formation at 3 uM pre-incubated for 10 mins by RP-HPLC method

The nature of assay [2]: Siderophore activity by chrome azurol S assay.
In assay [3] the test system is HeLa. Put plainly: Inhibition of cell proliferation of human HeLa cells after 72 hrs by methylene blue dye based assay. Format: functional.
Assay [4] relates to K562. Put plainly: Inhibition of cell proliferation of human K562 cells after 72 hrs by cell-titer-blue assay. Type of assay: functional, cell-based. To be noted: K562, 72 h.
In assay [5] the target is T1, Polyunsaturated fatty acid 5-lipoxygenase (Homo sapiens). Put plainly: Inhibition of human recombinant 5-LOX expressed in Escherichia coli BL21 DE3 assessed as reduction in 5-LO product formation at 10 uM pre-incubated for 10 mins by RP-HPLC method.
The target is the same in assay [6]. Put plainly: (§1) Inhibition of human recombinant 5-LOX expressed in Escherichia coli BL21 DE3 assessed as reduction in 5-LO product formation pre-incubated for 10 mins by RP-HPLC method.
The target of assay [7] is T2, Polyunsaturated fatty acid 5-lipoxygenase (Homo sapiens, UniProt P09917).
T2 sequence (P09917 whole entry): T1 sequence (whole entry)
Described as §1.

The target in assay [8] is T3, Prostaglandin E synthase (Homo sapiens) (UniProt O14684).
T3 sequence (whole entry): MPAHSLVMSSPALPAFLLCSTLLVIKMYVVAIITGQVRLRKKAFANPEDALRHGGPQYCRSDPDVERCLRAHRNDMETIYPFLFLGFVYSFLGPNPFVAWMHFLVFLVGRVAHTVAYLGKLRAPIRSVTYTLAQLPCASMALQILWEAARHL
Put plainly: Inhibition of m-PGES1 in IL-1beta-induced human A549 cell microsomes assessed as reduction in […]PGE2 production up to 100 uM pre-incubated for 15 mins before PGH2 addition by UV detection based reverse-phase high-performance liquid chromatography.

Calls of active or inactive are those of the source. No cut-off for these calls is given here.

Take `CC(c1cc2ccccc2s1)N(O)C(N)=O` (stereo not drawn): in assay [1], the inhibition result was “Active”.
Broadly, the IC50 is the point on the concentration scale where inhibition reaches its midpoint. In the case of `O=C(NCCCC[C@@H](CO)NC(=O)c1cccc(O)c1O)c1cccc(O)c1O`, the result in assay [2] was Active. For the same molecule, the IC50 in assay [3] stood at 305 µM; in assay [4], 3.9 µM; in assay [7] it was 1.9 µM. Further, the inhibition entry in assay [5] was “Active”. In assay [6], the inhibition entry was “Dose-dependent effect”. Moreover, in assay [8], the inhibition entry was “inactive”.
